Data published in PubChem BioAssay (NCI).
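1) Cells in 96-well plates. 2) Compound, 48 h, 5 concentrations. 3) Linear interpolation between surrounding doses. 4) Unreached endpoint = highest concentration. GI50 = concentration required for 50% inhibition of growth. TGI denotes the concentration required for complete inhibition of growth.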

Legend:
Assay in all cases: inhibition of tumour cell growth, NCI panel, 48 h
[1] = tested on: 786-0 renal
[2] = tested on: A498 renal
[3] = tested on: A549 NSCLC
[4] = tested on: ACHN renal
[5] = tested on: BT-549 breast
[6] = tested on: CAKI-1 renal
[7] = tested on: CCRF-CEM leukemia
[8] = tested on: COLO 205 colon
[9] = tested on: DU-145 prostate
[10] = tested on: EKVX NSCLC
[11] = tested on: HCC-2998 colon
[12] = tested on: HCT-116 colon
[13] = tested on: HCT-15 colon
[14] = tested on: HL-60(TB) leukemia
[15] = tested on: HOP-62 NSCLC
[16] = tested on: HOP-92 NSCLC
[17] = tested on: HS 578T breast
[18] = tested on: HT29 colon
[19] = tested on: IGROV1 ovarian
[20] = tested on: K-562 leukemia
[21] = tested on: KM12 colon
[22] = tested on: LOX IMVI melanoma
[23] = tested on: M14 melanoma
[24] = tested on: MALME-3M melanoma
[25] = tested on: MCF7 breast
[26] = tested on: MDA-MB-231 breast
[27] = tested on: MDA-MB-435
[28] = tested on: MOLT-4 leukemia
[29] = tested on: NCI-H226 lung
[30] = tested on: NCI-H23 lung
[31] = tested on: NCI-H460 lung
[32] = tested on: NCI-H522 lung
[33] = tested on: NCI/ADR-RES ovarian
[34] = tested on: OVCAR-3 ovarian
[35] = tested on: OVCAR-4 ovarian
[36] = tested on: OVCAR-5 ovarian
[37] = tested on: OVCAR-8 ovarian
[38] = tested on: PC-3 prostate
[39] = tested on: RPMI-8226 leukemia
[40] = tested on: RXF 393 renal
[41] = tested on: SF-268 CNS
[42] = tested on: SF-295 CNS
[43] = tested on: SF-539 CNS
[44] = tested on: SK-MEL-2 melanoma
[45] = tested on: SK-MEL-28 melanoma
[46] = tested on: SK-MEL-5 melanoma
[47] = tested on: SK-OV-3 ovarian
[48] = tested on: SN12C renal
[49] = tested on: SNB-19 CNS
[50] = tested on: SNB-75 CNS
[51] = tested on: SR leukemia
[52] = tested on: SW-620 colon
[53] = tested on: T-47D breast
[54] = tested on: TK-10 renal
[55] = tested on: U251 CNS
[56] = tested on: UACC-257 melanoma
[57] = tested on: UACC-62 melanoma
[58] = tested on: UO-31 renal

COC(=O)[C@]12CC[C@@H](C)[C@H](C)[C@@H]1C1=CC[C@@H]3[C@@]4(C)CC(=O)[C@H](O)[C@@](C)(CO)[C@@H]4C(=O)C[C@@]3(C)[C@]1(C)CC2
GI50 [1]: 12.4 µM
TGI [1]: 25.4 µM
GI50 [2]: 19.4 µM
TGI [2]: 33.9 µM
GI50 [3]: 15.8 µM
TGI [3]: 32.9 µM
GI50 [4]: 12.9 µM
TGI [4]: 28.3 µM
GI50 [5]: 11.3 µM
TGI [5]: 23.5 µM
GI50 [6]: 11.5 µM
TGI [6]: 24 µM
GI50 [7]: 3.38 µM
TGI [7]: 28.7 µM
GI50 [8]: 14.3 µM
TGI [8]: 29.5 µM
GI50 [9]: 11.2 µM
TGI [9]: 23.6 µM
GI50 [10]: 14.8 µM
TGI [10]: 29.2 µM
GI50 [11]: 16.9 µM
TGI [11]: 33.9 µM
GI50 [12]: 10.9 µM
TGI [12]: 23.3 µM
GI50 [13]: 9.37 µM
TGI [13]: 23.3 µM
GI50 [14]: 9.21 µM
TGI [14]: 28.4 µM
GI50 [15]: 13.3 µM
TGI [15]: 27.4 µM
GI50 [16]: 15.3 µM
TGI [16]: 30.1 µM
GI50 [17]: 7.98 µM
TGI [17]: 30.4 µM
GI50 [18]: 14.5 µM
TGI [18]: 30.4 µM
GI50 [19]: 12.7 µM
TGI [19]: 28.1 µM
GI50 [20]: 11.2 µM
TGI [20]: 40.7 µM
GI50 [21]: 10.8 µM
TGI [21]: 23.6 µM
GI50 [22]: 12.2 µM
TGI [22]: 25.8 µM
GI50 [23]: 11.9 µM
TGI [23]: 25.1 µM
GI50 [24]: 4.52 µM
TGI [24]: 22 µM
GI50 [25]: 12.1 µM
TGI [25]: 27.5 µM
GI50 [26]: 13.6 µM
TGI [26]: 29.2 µM
GI50 [27]: 12.6 µM
TGI [27]: 25.1 µM
GI50 [28]: 10.3 µM
TGI [28]: 27.1 µM
GI50 [29]: 11.9 µM
TGI [29]: 35.3 µM
GI50 [30]: 13.9 µM
TGI [30]: 31.1 µM
GI50 [31]: 6.66 µM
TGI [31]: 22.6 µM
GI50 [32]: 4.27 µM
TGI [32]: 22.1 µM
GI50 [33]: 12.1 µM
TGI [33]: 32.4 µM
GI50 [34]: 11.6 µM
TGI [34]: 24.8 µM
GI50 [35]: 11 µM
TGI [35]: 25.1 µM
GI50 [36]: 20.8 µM
TGI [36]: 37.6 µM
GI50 [37]: 4.89 µM
TGI [37]: 22.6 µM
GI50 [38]: 0.931 µM
TGI [38]: 15 µM
GI50 [39]: 0.53 µM
TGI [39]: 19.4 µM
GI50 [40]: 13.8 µM
TGI [40]: 28.6 µM
GI50 [41]: 12.6 µM
TGI [41]: 26.5 µM
GI50 [42]: 10.6 µM
TGI [42]: 23.3 µM
GI50 [43]: 16.2 µM
TGI [43]: 31.6 µM
GI50 [44]: 14.5 µM
TGI [44]: 29.4 µM
GI50 [45]: 14.6 µM
TGI [45]: 31.9 µM
GI50 [46]: 11.6 µM
TGI [46]: 23.9 µM
GI50 [47]: 16.6 µM
TGI [47]: 30.5 µM
GI50 [48]: 12.4 µM
TGI [48]: 27.3 µM
GI50 [49]: 12.9 µM
TGI [49]: 27.8 µM
GI50 [50]: 12.7 µM
TGI [50]: 27.1 µM
GI50 [51]: 5.95 µM
TGI [51]: 27.1 µM
GI50 [52]: 15.1 µM
TGI [52]: 30.6 µM
GI50 [53]: 2.44 µM
TGI [53]: 26.4 µM
GI50 [54]: 19.7 µM
TGI [54]: 34 µM
GI50 [55]: 11.7 µM
TGI [55]: 25.1 µM
GI50 [56]: 16.8 µM
TGI [56]: 31.7 µM
GI50 [57]: 3.25 µM
TGI [57]: 20.8 µM
GI50 [58]: 5.7 µM
TGI [58]: 23.4 µM
